Laboratory results from patent US7338932B2, “Methods of modulating functions of polypeptide GalNAc-transferases and of screening test substances to find agents herefor, pharmaceutical compositions comprising such agents and the use of such agents for preparing medicaments” (Glycozym APS, priority 2000, dated 2008).
Entries after “also recorded” stand apart in the source; their conditions may differ.

Tests used:
[1] = molecular target: Helix Pomatia lectin (HPA) (Helix pomatia, UniProt Q2F1K8); assay: Direct binding ELISA, competitive inhibition, Helix Pomatia lectin control; conditions: read-out: Concentration required for 50% inhibition (IC50), HPA; control plant lectin
From the text: Glycopeptides were purified by C-18 reverse phase HPLC. Peptides were custom synthesized by Neosystems (Strasbourg). Biotinylated Helix Pomatia lectin (HPA) was from KemEnTec (Denmark). Anti-MUC1 HMFG2 monoclonal antibody was a generous gift from Joyce Taylor-Papadimitriou. Anti-MUC1 SE5 monoclonal antibody was developed by immunizing Balb/c mice with 60-mer MUC1 tandem repeat peptide glycosylated with 5 moles GalNAc per repeat. Monoclonal antibodies to the lectin domains of human GalNAc-T2 and -T4 were developed as previously described^8, 63.
Direct binding ELISA assay was developed as follows: Polystyrene microtiter plates (Maxisorb, Nunc, Denmark) were coated with peptides or enzymatically glycosylated glycopeptides in PBS overnight at 4° C. Plates were washed and blocked with 0.1% Tween20 and 0.2% BSA in PBS for 1 h at room temperature, followed by incubation with biotinylated proteins in PBS with 0.05% Tween20 for 2 h at room temperature. After four washes with PBS, plates were incubated with 1:2,000 dilution streptavidin-HRP (Sigma) in PBS for 30 min at room temperature and washed four times with PBS. Development was performed with 0.5 mg/ml o-phenylenediamine and 0.02% H2O2 at room temperature for 15 min, and reaction stopped by adding 100 μl/well of 0.5 N H2SO4. Competitive inhibition assays were done at end-point titers of GalNAc-transferase proteins with one hour preincubations with inhibitor.
Inhibition experiments were used to further define the binding specificity of GalNAc-T2 and -T4 secreted soluble enzymes as well as lectin domains compared to Helix Pomatia lectin (Table VII).

[2] = system: CHOldlD/MUC1F-clone2 cells; assay: Cell surface expression of MUC1 by immunocytology; assay type: cell-based, Chinese Hamster; conditions: 1 mM; cells grown in GalNAc; FIG. 13
Protocol: We therefore investigated the effect of treatment with GalNAcα-benzyl of CHOldlD/MUC1F-clone2 cells grown in the presence of GalNAc. CHOldlD/MUC1F-clone2 cells were seeded in 6 well plates at a density of 0.2×10^6 per well and were grown for 6 hours in Hams F12 medium with serum until approximately 30% subconfluent. […] After 18 hours, the medium was replaced with fresh Optimem containing the sugars and benzyl derivatives as above and grown for 12-48 hours. Initially we analyzed surface expression of MUC1 by immunocytology. Cells were washed once in PBS-CMF (phosphate buffered saline Calcium and Magnesium free) after carefully removing the medium from the wells and subsequently fixed in 2 ml 3% paraformaldehyde at 25° C. for 20 min followed by three washes with PBS-CMF 3 times. Free aldehyde groups were quenched by incubating in 2 mL 50 mM Ammonium Chloride in PBS-CMF for 10 min, followed by three washes with PBS-CMF and three washes with 5 min incubations each with PBS-CMF containing 0.2% Fish Skin Gelatin (Sigma). Immunostaining of cells was performed by incubation with monoclonal antibodies for 40 min at 25° C., followed by three washes with PBS-CMF and three washes of 5 min each with PBS-CMF containing 0.2% Fish Skin Gelatin. […]

[3] = system: CHOldlD/MUC1F-clone2 cells; assay: MUC1 expression in cell lysates, immunoprecipitation and SDS-PAGE western blot; assay type: cell-based, Chinese Hamster; conditions: 2 mM
Protocol: We next analysed the expression of MUC1 produced by CHOldlD/MUC1F-clone2 cells by SDS-PAGE western analysis. […] Cells were further treated with 2 mM GalNAcα-benzyl, GlcNAcα-benzyl or no inhibitor. Cells were washed and lysed at 24 or 48 hours and the lysates subjected to immunoprecipitation with monoclonal antibody HMFG2, which broadly recognize MUC1 glycoforms. Immunoprecipitates were analysed by SDS-PAGE and western blot using HMFG2 antibody to detect MUC1 expression. […] In striking contrast, treatment with GalNAcα-benzyl had significant effect after 48 hours. […] This indicates some heterogeneity in glycosylation.
As shown in Examples 8 and 9, polypeptide GalNAc-transferases contain lectin domains with binding properties for GalNAc-peptides including GalNAc-MUC1 peptides. […] GalNAcβ-benzyl, the β-anomeric configuration of GalNAc-benzyl (there is a β linkage between the N-acetylgalactosamine and the benzyl ring), was custom synthesized by Alberta Research Council (Canada), and its structure was confirmed by mass spectrometry and ^1H-NMR. […] Cells were then treated with 2 mM GalNAcα-benzyl, GalNAcβ-benzyl, or GlcNAcα-benzyl as control (GlcNAcα-benzyl was shown in Example 10 to have no effect). Cells were washed and lysed as described above after 36 hours and the lysates subjected to immunoprecipitation with anti-MUC1 monoclonal antibodies HMFG2 or 5E5. […] FIG. 17 illustrates the same experiments as in FIG. 16 except that the detection antibody is 5E5 and only Tn and STn MUC1 glycoforms are visualised.

[4] = 48 hours, IP HMFG2, blot HMFG2, grown in GalNAc or Gal and GalNAc

Row | Structure (SMILES) | IC50 [1] [mM] | Cell surface expression of MUC1 [2] | MUC1 expression ([3]; 24 hours, IP HMFG2, blot HMFG2) | MUC1 expression ([3]; 36 hours, blot 5E5, cells grown in GalNAc) | MUC1 expression [3, 4] | SDS-PAGE migration of MUC1 (O-glycosylation) ([3]; 48 hours, cells grown in Gal and GalNAc, blot HMFG2)
1 | CC(=O)N[C@H]1[C@@H](OCc2ccccc2)O[C@H](CO)[C@H](O)[C@@H]1O [GalNAcα-benzyl] | 0.5 | strong inhibition | no significant effect | strong inhibition | significant reduction in MUC1 expression | significant shift in migration
2 | CC(=O)N[C@H]1[C@@H](OCc2ccccc2)O[C@H](CO)[C@@H](O)[C@@H]1O [GlcNAcα-benzyl] | 2 | no inhibition |  |  | produced the same glycoforms at similar intensity as cells without treatment; also recorded: no effect | 
